system: 24-hydroxylase; experiment: kidney 24-hydroxylase gene expression in athymic nude mice (RT-PCR); type: in vivo; settings: four doses, oral gavage every other day for 14 days; FIG. 2
Method: A (three day) effective dose study was conducted on normal BALB/c mice in order to select a compound for the athymic nude mice study described below. Two-week old male Balb/c mice (Harlan) were weighed and sorted into groups of six according to Day-1 weight. Animals were given a standard diet and housed under normal lighting conditions. Compounds were administered in sesame oil vehicle with 4% ethanol. Ethanol was removed by evaporation by sparging with nitrogen prior to dosing orally by gavage via a 1 cc syringe with a 20 G disposable feeding needle (0.1 mL dose volume). Dosing was daily for three days, with animal weights measured on Days 0, 1 and 3. […] Animal weights were monitored on Day 3, 7, 10 and 14. […] The RT reactions were performed in a DNA Engine thermal cycler (PTC-200, MJ Research) (50° C. 30 minutes; 72° C. 5 minutes) Real-Time Quantitative PCR was performed in a 384 well assay plate using the Prism 7900HT (ABI) using the entire product from the reverse transcription reaction above (5 uL). […] Results were analyzed using the data analysis and software packet (SDS) provided with the instrumentation. FIG. 1 compares the effect of 1α,25-dihydroxyvitamin D3, against four different doses of one selected compound of the current invention, Compound B on plasma calcium levels in athymic nude mice at Day 14 measured 3 hours after final dose. […]

Structure (SMILES) | RNA expression of kidney 24-hydroxylase (relative to cyclophilin)
CCC(CC)(c1ccc(C#CC(O)C(C)(C)C)c(C)c1)c1ccc(OC[C@@H](O)CO)c(C)c1 (single isomer, unassigned) [compound B] | dose responsive increase

target: T1, VDR (Homo sapiens, UniProt P11473); experiment: modified mammalian two-hybrid assay (VDR / SRC-1 interaction, luciferase reporter); type: cell-based; settings: CV-1 cells, exemplary compounds, read-out: agonist activity EC50
T1 construct: expressed in transfected cells; host or cells: CV-1 (African green monkey kidney cells), transient transfection
T1 sequence (P11473 92-425): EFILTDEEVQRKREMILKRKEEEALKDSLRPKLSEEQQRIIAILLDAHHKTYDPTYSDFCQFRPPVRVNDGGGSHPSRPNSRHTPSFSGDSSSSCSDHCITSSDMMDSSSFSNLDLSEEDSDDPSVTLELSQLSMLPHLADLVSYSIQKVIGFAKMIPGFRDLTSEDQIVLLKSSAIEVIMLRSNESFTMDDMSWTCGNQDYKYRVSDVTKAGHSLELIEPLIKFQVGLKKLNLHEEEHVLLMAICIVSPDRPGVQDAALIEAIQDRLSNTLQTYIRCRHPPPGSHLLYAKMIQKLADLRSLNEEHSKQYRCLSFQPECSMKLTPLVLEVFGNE
T1 sequence (Q15788 381-891 partner limits assumed): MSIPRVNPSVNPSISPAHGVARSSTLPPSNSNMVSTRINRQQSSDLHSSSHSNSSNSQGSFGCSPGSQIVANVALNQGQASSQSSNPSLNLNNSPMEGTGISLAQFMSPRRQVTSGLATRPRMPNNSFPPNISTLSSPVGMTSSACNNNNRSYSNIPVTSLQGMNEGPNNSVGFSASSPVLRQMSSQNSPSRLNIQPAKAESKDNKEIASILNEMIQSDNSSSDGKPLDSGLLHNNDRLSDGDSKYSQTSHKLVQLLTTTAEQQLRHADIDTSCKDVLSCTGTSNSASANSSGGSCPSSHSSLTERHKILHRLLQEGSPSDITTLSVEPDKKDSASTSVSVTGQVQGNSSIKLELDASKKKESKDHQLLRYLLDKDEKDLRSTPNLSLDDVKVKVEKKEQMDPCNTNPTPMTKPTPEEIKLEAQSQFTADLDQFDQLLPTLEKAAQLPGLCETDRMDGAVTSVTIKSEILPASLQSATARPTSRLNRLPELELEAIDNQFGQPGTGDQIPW
Method: Compound activity was determined using a modified mammalian two-hybrid assay, using the interaction of VDR to the co-factor SRC-1 to monitor receptor activation.
Following incubation with transfection reagents for 5 hours at 37° C., transfected cells were trypsinized, centrifuged, resuspended in media and added to the assay plates, (45 μl, 5000 cells per well). The assay plates containing both compounds and screening cells were incubated for approximately 20 hours at 37° C. in a tissue culture incubator.
After incubation of the transfected cells with compounds, media was aspirated and lysis buffer (1% Triton X 100, 10% Glycerol, 5 mM Dithiothreitol,1 mM EGTA, 25 mM Tricine pH 7.8) added.

Structure (SMILES) | EC50 [µM]
CCC(CC)(c1ccc(CCC(O)C(C)(C)C)cc1)c1ccc(OC[C@@H](O)CO)c(C)c1 (stereo partly drawn) [3-(4-{1-Ethyl-1-[4-(3-hydroxy-4,4-dimethylpentyl)-phenyl]-propyl}-2-methylphenoxy)-propane-1,2(S)-diol] | < 10
Cc1cc(C(c2ccccc2)(c2ccc(OCC(O)C(C)(C)C)c(C)c2)C(F)(F)C(F)(F)F)ccc1OCC(O)CO (stereo not drawn) [3-(2-Methyl-4-{2,2,3,3,3-pentafluoro-1-[4-(2-hydroxy-3,3-dimethyl-butoxy)-3-methyl-phenyl]-1-phenyl-propyl}-phenoxy)-propane-1,2-diol] | < 10
CC(=O)N1CCC(c2ccc(OCC(=O)C(C)(C)C)c(C)c2)(c2ccc(OCC(=O)C(C)(C)C)c(C)c2)CC1 [1-(4-{1-Acetyl-4-[4-(3,3-dimethyl-2-oxo-butoxy)-3-methyl-phenyl]-piperidin-4-yl}-2-methyl-phenoxy)-3,3-dimethyl-butan-2-one] | < 10
CCC(CC)(c1ccc(/C=C\C(O)C(C)(C)C)c(C)c1)c1ccc(OC[C@@H](O)CO)c(C)c1 (stereo partly drawn) [(Z)-3-(4-{1-ethyl-1-[4-(3-hydroxy-4,4-dimethylpent-1-enyl)-3-methylphenyl]-propyl}-2-methylphenoxy)-propane-1,2(S)-diol] | < 10
Cc1cc(C(c2ccccc2)(c2ccc(OCC(O)C(C)(C)C)c(C)c2)C(F)(F)F)ccc1OCC(O)CO (stereo not drawn) [3-(2-Methyl-4-{2,2,2-trifluoro-1-[4-(2-hydroxy-3,3-dimethyl-butoxy)-3-methyl-phenyl]-1-phenyl-ethyl}-phenoxy)-propane-1,2-diol] | < 10
CCC(O)(CC)CCc1ccc(C(CC)(CC)c2ccc(OC[C@@H](O)CO)c(C)c2)cc1C [3-(4-{1-ethyl-1-[4-(3-ethyl-3-hydroxypentyl)-3-methylphenyl]-propyl}-2-methyl-phenoxy)-propane-1,2(S)-diol] | < 10
CCC(CC)(c1ccc(CCC(C)(C)O)c(C)c1)c1ccc(OC[C@@H](O)CO)c(C)c1 [3-(4-{1-ethyl-1-[4-(3-hydroxy-3-methylbutyl)-3-methylphenyl]-propyl}-2-methylphenoxy)-propane 1,2(S)-diol] | < 10

system: not listed separately; experiment: plasma calcium determination in athymic nude mice; type: in vivo; settings: four doses, oral gavage every other day for 14 days, Day 14; FIG. 1
Method: A (three day) effective dose study was conducted on normal BALB/c mice in order to select a compound for the athymic nude mice study described below. Two-week old male Balb/c mice (Harlan) were weighed and sorted into groups of six according to Day-1 weight. Animals were given a standard diet and housed under normal lighting conditions. Compounds were administered in sesame oil vehicle with 4% ethanol. Ethanol was removed by evaporation by sparging with nitrogen prior to dosing orally by gavage via a 1 cc syringe with a 20 G disposable feeding needle (0.1 mL dose volume). Dosing was daily for three days, with animal weights measured on Days 0, 1 and 3. […] Animal weights were monitored on Day 3, 7, 10 and 14. […]
Calcium determination was carried out in a micronized plate format with heparinized plasma samples utilizing a colorimetric assay (Sigma 588-3). […] When present in an acidic medium, the calcium Arsenazo complex forms a purple color that was determined using a standard plate reader at […] against a standard curve.
FIG. 1 compares the effect of 1α,25-dihydroxyvitamin D3, against four different doses of one selected compound of the current invention, Compound B on plasma calcium levels in athymic nude mice at Day 14 measured 3 hours after final dose. Dosage is measured in μg/kg and plasma calcium levels are in mg/dl. […]

Structure (SMILES) | plasma calcium concentration
CCC(CC)(c1ccc(C#CC(O)C(C)(C)C)c(C)c1)c1ccc(OC[C@@H](O)CO)c(C)c1 (single isomer, unassigned) [compound B] | without elevating plasma calcium concentration

— patent US7863298B2, “Bridged ring structures as pharmaceutical agents” (Exelixis, Inc., priority 2003, dated 2011)
